According to patent US20020169101A1, “Treatment of sexual dysfunction” (priority 1999, published 2002):

Biological target: T1, human NMB receptor (BB1) (Homo sapiens, UniProt P28336)
T1 construct: expressed in transfected cells; membranes prepared from the cells
Assay: BB1 binding assay ([125I][Tyr4]bombesin displacement, CHO-K1 membranes)
Conditions: not given
Protocol: In the following experiments, measurement of BB1 and BB2 binding was as follows. CHO-K1 cells stably expressing cloned human NMB (for (BB1 assay) and GRP receptors (for BB2 assay) were routinely grown in Ham's F12 culture medium supplemented with 10% foetal calf serum and 2 mM glutamine. For binding experiments, cells were harvested by trypsinization, and stored frozen at −70° C. in Ham's F12 culture medium containing 5% DMSO until required. On the day of use, cells were thawed rapidly, diluted with an excess of culture medium, and centrifuged for 5 minutes at 2000 g. Cells were resuspended in 50 mM Tris-HCl assay buffer (pH 7.4 at 21° C., containing 0.02% BSA, 40 μg/mL bacitracin, 2 μg/mL chymostatin, 4 μg/mL leupeptin, and 2 μM phosphoramidon), counted, and polytronned (setting 5, 10 sec) before centrifuging for 10 minutes at 28,000 g. The final pellet was resuspended in assay buffer to a final cell concentration of 1.5×10^5/mL. For binding assays, […] aliquots of membranes were incubated with [^125I][Tyr^4]bombesin (<0.1 nM) in the presence and absence of test compounds (final assay volume 250 μL) for 60 minutes and 90 minutes for NMB and GRP receptors, respectively. Nonspecific binding was defined by 1 μM bombesin. Assays were terminated by rapid filtration under vacuum onto Whatman GF/C filters presoaked in 0.2% PEI for >2 hours, and washed 50 mM Tris-HCl (pH 6.9 at 21° C.; 6×1 mL). Radioactivity bound was determined using a gamma counter.
All competition data was analysed using nonlinear regression utilizing iterative curve-plotting procedures in Prism® (GraphPad Software Inc., San Diego, USA). IC50 values were corrected to Ki values using the Cheng-Prusoff equation (Cheng Y., Prusoff W. H., Biochem. Pharmacol. 22: 3099-3108, 1973). obtained are listed in Table 1.

T1 sequence (P28336 whole entry): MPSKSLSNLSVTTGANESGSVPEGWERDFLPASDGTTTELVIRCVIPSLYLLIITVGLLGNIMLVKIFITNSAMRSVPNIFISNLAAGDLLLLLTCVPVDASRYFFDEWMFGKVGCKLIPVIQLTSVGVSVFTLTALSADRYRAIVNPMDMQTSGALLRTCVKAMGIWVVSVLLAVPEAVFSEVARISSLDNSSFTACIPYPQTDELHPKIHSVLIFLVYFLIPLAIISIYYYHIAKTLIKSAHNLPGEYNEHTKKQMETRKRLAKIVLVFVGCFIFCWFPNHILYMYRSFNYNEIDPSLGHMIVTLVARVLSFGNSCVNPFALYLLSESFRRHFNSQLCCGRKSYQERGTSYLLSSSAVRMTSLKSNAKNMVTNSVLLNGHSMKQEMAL

Q: Which IC50 does the source give for `Cc1ccc(S(=O)(=O)N[C@@](C)(Cc2c[nH]c3ccccc23)C(=O)NCC2(c3ccccn3)CCCCC2)cc1` [Example 112] here?
A: Its IC50 is 557 nM.

Q: For `C[C@@](Cc1c[nH]c2ccccc12)(NS(=O)(=O)c1ccccc1F)C(=O)NCC1(c2ccccn2)CCCCC1` [Example 114], which IC50 is on record?
A: The IC50 was 267 nM.

Q: `CN(C)c1cccc2c(S(=O)(=O)N[C@@](C)(Cc3c[nH]c4ccccc34)C(=O)NCC3(c4ccccn4)CCCCC3)cccc12` [Example 117] was tested. Which IC50 did it give?
A: Its IC50 is 1300 nM.

Q: For `C[C@@](Cc1c[nH]c2ccccc12)(NS(=O)(=O)c1ccc2ccccc2c1)C(=O)NCC1(c2ccccn2)CCCCC1` [Example 118], which IC50 is on record?
A: Its IC50 is 322 nM.

Q: For `C[C@@](Cc1c[nH]c2ccccc12)(NS(=O)(=O)c1cccs1)C(=O)NCC1(c2ccccn2)CCCCC1` [Example 119], which IC50 is on record?
A: Its IC50 is 232 nM.

Q: For `C[C@@](Cc1c[nH]c2ccccc12)(NS(=O)(=O)c1ccc([N+](=O)[O-])cc1)C(=O)NCC1(c2ccccn2)CCCCC1` [Example 123], which IC50 is on record?
A: The IC50 was 515 nM.

Q: For `C[C@@](Cc1c[nH]c2ccccc12)(NS(=O)(=O)c1ccc(Cl)c(Cl)c1)C(=O)NCC1(c2ccccn2)CCCCC1` [Example 125], which IC50 is on record?
A: Its IC50 is 216 nM.

Q: For `C[C@@](Cc1c[nH]c2ccccc12)(NS(=O)(=O)c1ccc(C(F)(F)F)cc1)C(=O)NCC1(c2ccccn2)CCCCC1` [Example 127], which IC50 is on record?
A: Its IC50 is 553 nM.

Q: Which IC50 does the source give for `C[C@@](Cc1c[nH]c2ccccc12)(NS(=O)(=O)c1ccc(Cl)s1)C(=O)NCC1(c2ccccn2)CCCCC1` [Example 128] here?
A: Its IC50 is 404 nM.

Q: How did the IC50 turn out when `C[C@@](Cc1c[nH]c2ccccc12)(NS(=O)(=O)c1ccccc1C(F)(F)F)C(=O)NCC1(c2ccccn2)CCCCC1` [Example 129, (S)-3-(1H-indol-3-yl)-2-methyl-N-(1-pyridin-2-yl-cyclohexylmethyl)-2-(2-trifluoromethyl-benzenesulfonylamino)-propionamide] was run?
A: The IC50 was 134 nM.

Q: How did the IC50 turn out when `COc1ccc(S(=O)(=O)N[C@@](C)(Cc2c[nH]c3ccccc23)C(=O)NCC2(c3ccccn3)CCCCC2)cc1OC` [Example 132] was run?
A: The IC50 was 608 nM.

Q: `C[C@@](Cc1c[nH]c2ccccc12)(NS(=O)(=O)c1ccc(C#N)cc1)C(=O)NCC1(c2ccccn2)CCCCC1` [Example 133] was tested. Which IC50 did it give?
A: The IC50 was 766 nM.

Q: With `C[C@@](Cc1c[nH]c2ccccc12)(NS(=O)(=O)c1ccccc1C#N)C(=O)NCC1(c2ccccn2)CCCCC1` [Example 134] as the compound, how does the IC50 read?
A: Its IC50 is 408 nM.

Q: `Cc1nn(C)c(Cl)c1S(=O)(=O)N[C@@](C)(Cc1c[nH]c2ccccc12)C(=O)NCC1(c2ccccn2)CCCCC1` [Example 135] was tested. Which IC50 did it give?
A: Its IC50 is 1250 nM.

Q: With `Cc1noc(C)c1S(=O)(=O)N[C@@](C)(Cc1c[nH]c2ccccc12)C(=O)NCC1(c2ccccn2)CCCCC1` [Example 136] as the compound, how does the IC50 read?
A: The IC50 was 515 nM.

Q: `C[C@@](Cc1c[nH]c2ccccc12)(NS(=O)(=O)c1cccc2nsnc12)C(=O)NCC1(c2ccccn2)CCCCC1` [Example 137] was tested. Which IC50 did it give?
A: Its IC50 is 256 nM.

Q: `Cn1cnc(S(=O)(=O)N[C@@](C)(Cc2c[nH]c3ccccc23)C(=O)NCC2(c3ccccn3)CCCCC2)c1` [Example 138] was tested. Which IC50 did it give?
A: The IC50 was 3670 nM.

Q: With `C[C@@](Cc1c[nH]c2ccccc12)(NS(=O)(=O)c1cccc2nonc12)C(=O)NCC1(c2ccccn2)CCCCC1` [Example 139] as the compound, how does the IC50 read?
A: The IC50 was 507 nM.

Q: For `COC(=O)c1sccc1S(=O)(=O)N[C@@](C)(Cc1c[nH]c2ccccc12)C(=O)NCC1(c2ccccn2)CCCCC1` [Example 140], which IC50 is on record?
A: The IC50 was 167 nM.

Q: `C[C@@](Cc1c[nH]c2ccccc12)(NS(=O)(=O)c1ccc(-c2ccon2)s1)C(=O)NCC1(c2ccccn2)CCCCC1` [Example 141] was tested. Which IC50 did it give?
A: Its IC50 is 534 nM.

Q: How did the IC50 turn out when `C[C@@](Cc1c[nH]c2ccccc12)(NS(=O)(=O)Cc1ccccc1[N+](=O)[O-])C(=O)NCC1(c2ccccn2)CCCCC1` [Example 142] was run?
A: Its IC50 is 430 nM.

Q: How did the IC50 turn out when `C[C@@](Cc1c[nH]c2ccccc12)(NS(=O)(=O)c1cccc(C#N)c1)C(=O)NCC1(c2ccccn2)CCCCC1` [Example 143] was run?
A: The IC50 was 460 nM.

Q: With `Cc1nc(S(=O)(=O)N[C@@](C)(Cc2c[nH]c3ccccc23)C(=O)NCC2(c3ccccn3)CCCCC2)cn1C` [Example 144] as the compound, how does the IC50 read?
A: Its IC50 is 2480 nM.

Same assay, conditions: Table 1, human NMB receptor binding affinity; Ki from IC50 by Cheng-Prusoff; read-out: NMB Ki

Q: Which Ki does the source give for `C[C@@](Cc1c[nH]c2ccccc12)(Nc1ccccc1-c1ccccc1)C(=O)NCC1(c2ccccn2)CCCCC1` [Example 21, (S)-2-(Biphenyl-2-ylamino)-3-(1H-indol-3-yl)-2-methyl-N-(1-pyridin-2-yl-cyclohexylmethyl)-propionamide] here?
A: Its Ki is 824 nM.

Q: `C[C@@](Cc1c[nH]c2ccccc12)(Nc1cccc(-c2ccccc2)n1)C(=O)NCC1(c2ccccn2)CCCCC1` [Example 23, (S)-3-(1H-Indol-3-yl)-2-methyl-2-(6-phenyl-pyridin-2-ylamino)-N-(1-pyridin-2-yl-cyclohexylmethyl)-propionamide] was tested. Which Ki did it give?
A: Its Ki is 3370 nM.

Q: `C[C@@](Cc1c[nH]c2ccccc12)(NCc1cc2ccccc2o1)C(=O)NCC1(c2ccccn2)CCCCC1` [Example 26] was tested. Which Ki did it give?
A: Its Ki is 2400 nM.

Same assay, conditions: Table 3, N-acyl derivatives of Intermediate III-7

Q: For `C[C@@](Cc1c[nH]c2ccccc12)(NC(=O)c1ccccn1)C(=O)NCC1(c2ccccn2)CCCCC1` [Example 57], which IC50 is on record?
A: Its IC50 is 3710 nM.

Q: How did the IC50 turn out when `C[C@@](Cc1c[nH]c2ccccc12)(NC(=O)c1ccoc1)C(=O)NCC1(c2ccccn2)CCCCC1` [Example 59] was run?
A: The IC50 was 1200 nM.

Q: With `C[C@@](Cc1c[nH]c2ccccc12)(NC(=O)c1ccco1)C(=O)NCC1(c2ccccn2)CCCCC1` [Example 60] as the compound, how does the IC50 read?
A: The IC50 was 1200 nM.

Q: With `Cc1cc(C(=O)N[C@@](C)(Cc2c[nH]c3ccccc23)C(=O)NCC2(c3ccccn3)CCCCC2)no1` [Example 62] as the compound, how does the IC50 read?
A: Its IC50 is 4130 nM.

Q: With `Cn1cccc1C(=O)N[C@@](C)(Cc1c[nH]c2ccccc12)C(=O)NCC1(c2ccccn2)CCCCC1` [Example 63, 1-Methyl-1H-pyrrole-2-carboxylic acid {(S)-2-(1H-indol-3-yl)-1-methyl-1-[(1-pyridin-2-yl-cyclohexylmethyl)-carbamoyl]-ethyl}-amide] as the compound, how does the IC50 read?
A: The IC50 was 4820 nM.

Q: Which IC50 does the source give for `C[C@@](Cc1c[nH]c2ccccc12)(NC(=O)c1ccc2[nH]nnc2c1)C(=O)NCC1(c2ccccn2)CCCCC1` [Example 73, 1H-Benzotriazole-5-carboxylic acid {(S)-2-(1H-indol-3-yl)-1-methyl-1-[(1-pyridin-2-yl-cyclohexylmethyl)-carbamoyl]-ethyl}-amide] here?
A: The IC50 was 3170 nM.

Q: How did the IC50 turn out when `C[C@@](Cc1c[nH]c2ccccc12)(NC(=O)c1cc2ccccc2cn1)C(=O)NCC1(c2ccccn2)CCCCC1` [Example 77, Isoquinoline-3-carboxylic acid {(S)-2-(1H-indol-3-yl)-1-methyl-1-[(1-pyridin-2-yl-cyclohexylmethyl)-carbamoyl]-ethyl}-amide] was run?
A: Its IC50 is 1360 nM.

Q: For `C[C@@](Cc1c[nH]c2ccccc12)(NC(=O)c1cnc2ccccc2n1)C(=O)NCC1(c2ccccn2)CCCCC1` [Example 78, Quinoxaline-2-carboxyiic acid {(S)-2-(1H-indol-3-yl)-1-methyl-1-[(1-pyridin-2-yl-cyclohexylmethyl)-carbamoyl]-ethyl}-amide], which IC50 is on record?
A: Its IC50 is 1420 nM.

Same assay, conditions: second 'TABLE 4', N-terminal urethane derivatives of Intermediate III-7

Q: For `C[C@@](Cc1c[nH]c2ccccc12)(NC(=O)OCc1ccc(Cl)cc1Cl)C(=O)NCC1(c2ccccn2)CCCCC1` [Example 104, {(S)-2-(1H-Indol-3-y1)-1-methyl-1-[(1-pyridin-2-yl-cyclohexylmethyl)-carbamoyl]-ethyl}-carbamic acid 2,4-dichloro-benzyl ester], which IC50 is on record?
A: The IC50 was 450 nM.

Q: With `C[C@@](Cc1c[nH]c2ccccc12)(NC(=O)OCc1ccc2ncccc2c1)C(=O)NCC1(c2ccccn2)CCCCC1` [Example 110, {(S)-2-(1H-Indol-3-y1)-1-methyl-1-[(1-pyridin-2-yl-cyclohexylmethyl)-carbamoyl]-ethyl}-carbamic acid quinolin-6-ylmethyl ester] as the compound, how does the IC50 read?
A: Its IC50 is 171 nM.
